The values below come from ChEMBL document CHEMBL1759904, “Synthesis and application of a bromomethyl substituted scaffold to be used for efficient optimization of anti-virulence activity” (Eur J Med Chem, 2011).

The test system of data set [1] is HeLa. Kind of data set: Cytotoxicity against human HeLa cells after 24 hrs by calcein AM based spectrophotometric analysis. The data set is classed as cell-based.
Data set [2] concerns Escherichia coli. Kind of data set: Antibacterial activity against Escherichia coli UTI89 assessed as number of wells with agglutination by hemagglutinination assay in presence of 500 uM pilicide. Format: functional.
Data set [3] deals with Escherichia coli. Kind of data set: Antibacterial activity against Escherichia coli UTI89 assessed as inhibition of biofilm formation after 24 hrs. Format: functional, organism-based. Conditions: UTI89, 24 h.
The test system of data set [4] is Escherichia coli. Kind of data set: Antibacterial activity against Escherichia coli UTI89 assessed as inhibition of biofilm formation at 200 uM after 24 hrs. Format: functional. Conditions: for inhibition at 200 µM: UTI89, 24 h.

SMILES strings stand for the structures. Activity calls are given as the source filed them. The rule behind the calls is not given here.

For orientation: EC50 means the concentration at which the effect is half-maximal. A word on the inhibition: it is how much of the control response was suppressed. Turning to `COc1ccc2cc(Cc3cc(=O)n4c(c3-c3cccc(C(F)(F)F)c3)SC[C@H]4C(=O)O)ccc2c1`, the figures for the Activity entry in data set [1] and in data set [2] were “Non-toxic” and 5.5, respectively. In addition, the EC50 in data set [3] was found to be 9 µM. In addition, in data set [4], the inhibition at 200 µM came to 93%.

With `O=C(NCc1cc(=O)n2c(c1C1CC1)SC[C@H]2C(=O)O)c1ccccc1`, in data set [4], the inhibition entry was “inactive”.

For `O=C(O)[C@@H]1CSc2c(C3CC3)c(Cc3ccc4[nH]ccc4c3)cc(=O)n21`, in data set [4], the inhibition at 200 µM is 37%.

In the case of `O=C(O)[C@@H]1CSc2c(C3CC3)c(COc3ccccc3)cc(=O)n21`, the inhibition at 200 µM in data set [4] stood at 43%.

`O=C(O)[C@@H]1CSc2c(C3CC3)c(COc3cccc4ccccc34)cc(=O)n21`: the results for the Activity entry in data set [1] and in data set [2] were “Non-toxic” and 5.5, respectively. Also, the EC50 in data set [3] was 32 µM. For the same compound, the inhibition at 200 µM in data set [4] came out at 96%.

Regarding `O=C(O)[C@@H]1CSc2c(-c3cccc(C(F)(F)F)c3)c(COc3cccc4ccccc34)cc(=O)n21`, the Activity entry in data set [1] is “Non-toxic”; in data set [2], 5. The EC50 in data set [3] is 37 µM. Moreover, the inhibition at 200 µM in data set [4] was 72%.

As for `O=C(O)[C@@H]1CSc2c(-c3cccc(C(F)(F)F)c3)c(CN3CCOCC3)cc(=O)n21`, the inhibition entry in data set [4] is “inactive”.

Take `O=C(O)[C@@H]1CSc2c(-c3cccc(C(F)(F)F)c3)c(Cc3cccc(OCc4ccc(F)cc4)c3)cc(=O)n21`: the Activity result in data set [1] is recorded as “Non-toxic”. Moreover, in data set [3], the EC50 turned out to be 3 µM. Besides, in data set [4], the inhibition at 200 µM was 75%.

For `O=C(O)[C@@H]1CSc2c(C3CC3)c(CNS(=O)(=O)c3ccccc3)cc(=O)n21`, the inhibition result in data set [4] is “inactive”.

With `O=C(NCc1cc(=O)n2c(c1-c1cccc(C(F)(F)F)c1)SC[C@H]2C(=O)O)c1cccc2ccccc12`, the EC50 in data set [3] was found to be 130 µM. Further, the inhibition at 200 µM in data set [4] stood at 65%.

Take `O=C(O)[C@@H]1CSc2c(-c3cccc(C(F)(F)F)c3)c(CN3CCc4ccccc4C3)cc(=O)n21`: in data set [3], the EC50 came out at 130 µM. Also, the inhibition at 200 µM in data set [4] came to 84%.

Consider `O=C(O)[C@@H]1CSc2c(-c3cccc(C(F)(F)F)c3)c(CNS(=O)(=O)c3ccccc3)cc(=O)n21`, for which the inhibition at 200 µM in data set [4] was 48%.

`COc1ccc2cc(Cc3cc(=O)n4c(c3C3CC3)SC[C@H]4C(=O)O)ccc2c1`: the inhibition entry in data set [4] is “inactive”.

Consider `O=C(O)[C@@H]1CSc2c(C3CC3)c(CNS(=O)(=O)c3cccc4ccccc34)cc(=O)n21`, for which the inhibition entry in data set [4] was “inactive”.

With `O=C(O)[C@@H]1CSc2c(-c3cccc(C(F)(F)F)c3)c(Cc3cccc4ccccc34)cc(=O)n21`, the Activity result in data set [1] is listed as “Non-toxic”; in data set [2], 5. Further, the EC50 in data set [3] is 17 µM. In data set [4], the inhibition at 200 µM turned out to be 92%.

As for `O=C(NCc1cc(=O)n2c(c1C1CC1)SC[C@H]2C(=O)O)c1cccc2ccccc12`, in data set [4], the inhibition result is “inactive”.

`O=C(O)[C@@H]1CSc2c(-c3cccc(C(F)(F)F)c3)c(COc3ccccc3)cc(=O)n21`: in data set [1], the Activity result was “Non-toxic”. In addition, in data set [3], the EC50 came to 21 µM. Moreover, in data set [4], the inhibition at 200 µM was determined as 80%.

With `O=C(O)[C@@H]1CSc2c(-c3cccc(C(F)(F)F)c3)c(CN3CCCCC3)cc(=O)n21`, the inhibition at 200 µM in data set [4] was determined as 30%.

With `O=C(O)[C@@H]1CSc2c(C3CC3)c(Cc3cccc4ccccc34)cc(=O)n21`, the Activity result is recorded as “Non-toxic” in data set [1] and 7 in data set [2]. For the same compound, the concentration giving a half-maximal response (EC50) in data set [3] stood at 189 µM. For the same compound, the inhibition at 200 µM in data set [4] is 54%.

On to `O=C(O)[C@@H]1CSc2c(-c3cccc(C(F)(F)F)c3)c(CNS(=O)(=O)c3cccc4ccccc34)cc(=O)n21`, for which the Activity result in data set [1] was “Non-toxic”. Moreover, the EC50 in data set [3] turned out to be 38 µM. Also, the inhibition at 200 µM in data set [4] stood at 91%.

For the compound `O=C(NCc1cc(=O)n2c(c1-c1cccc(C(F)(F)F)c1)SC[C@H]2C(=O)O)c1ccccc1`, the inhibition result in data set [4] was “inactive”.

`O=C(O)[C@@H]1CSc2c(C3CC3)c(CN3CCc4ccccc4C3)cc(=O)n21`: the inhibition entry in data set [4] is “inactive”.

`O=C(O)[C@@H]1CSc2c(C3CC3)c(Cc3cccc(OCc4ccc(F)cc4)c3)cc(=O)n21`: the Activity result in data set [1] was “Non-toxic”. Also, the EC50 in data set [3] is 43 µM. In data set [4], the inhibition at 200 µM came to 76%.

Turning to `O=C(O)[C@@H]1CSc2c(C3CC3)c(CN3CCCCC3)cc(=O)n21`, the inhibition entry in data set [4] was “inactive”.

For `O=C(O)[C@@H]1CSc2c(C3CC3)c(CN3CCOCC3)cc(=O)n21`, in data set [4], the inhibition entry was “inactive”.

Turning to `O=C(O)[C@@H]1CSc2c(-c3cccc(C(F)(F)F)c3)c(Cc3ccc4[nH]ccc4c3)cc(=O)n21`, the Activity entry in data set [1] is given as “Non-toxic”; in data set [2], 5. In addition, the EC50 in data set [3] came to 30 µM. Further, in data set [4], the inhibition at 200 µM was 97%.
